Key:
Assay type in all cases: cell-based, mouse
[1] = test system: β-galactosidase in CMV-LacZ C2C12 myoblasts; assay: CMV-LacZ secondary screen in C2C12 myoblasts (β-Gal stabilizing assay); settings: CMV-LacZ C2C12 myoblasts
Procedure, shortened: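 A secondary screen identifies compounds that stabilize β-gal independently of the native promoter, using CMV-LacZ C2C12 cells. Curves span 0.5–40 μM at six levels, in duplicate.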

[2] = test system: β-galactosidase in CMV-LacZ C2C12 myotubes; assay: CMV-LacZ secondary screen in C2C12 myotubes (β-Gal stabilizing assay); settings: C2C12 CMV-LacZ myotubes, fold relative to DMSO
Procedure, shortened: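 β-Gal level was the read-out, measured in a clonal C2C12 line expressing LacZ from a CMV promoter. Dose-response curves used six concentrations, 0.5 μM up to 40 μM, with duplicate points.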

[3] = test system: α7 integrin (LacZ reporter in α7βgal+/− myoblasts); assay: Myoblast α7+/LacZ integrin FDG assay (Burkin assay in myoblasts, 96-well); settings: α7+/LacZ myoblasts, 96-well
[4] = test system: α7 integrin (LacZ reporter in α7+/LacZ myotubes); assay: Myotube α7 integrin FDG assay (Burkin assay in myotubes, 96-well); settings: myotubes

Structure (SMILES) | CMV-LACZ in Myoblasts (β-galactosidase activity relative to DMSO) ([1]; 0.5 uM) | CMV-LACZ in Myoblasts (β-galactosidase activity relative to DMSO) ([1]; 1 uM) | CMV-LACZ in Myoblasts (β-galactosidase activity relative to DMSO) ([1]; 5 uM) | CMV-LACZ in Myoblasts (β-galactosidase activity relative to DMSO) ([1]; 10 uM) | CMV-LACZ in Myoblasts (β-galactosidase activity relative to DMSO) ([1]; 20 uM) | CMV-LACZ in Myoblasts (β-galactosidase activity relative to DMSO) ([1]; 40 uM) | CMV-LACZ in Myotubes, signal relative to DMSO ([2]; 0.5 uM) | CMV-LACZ in Myotubes, signal relative to DMSO ([2]; 1 uM) | CMV-LACZ in Myotubes, signal relative to DMSO ([2]; 5 uM) | CMV-LACZ in Myotubes, signal relative to DMSO ([2]; 10 uM) | CMV-LACZ in Myotubes, signal relative to DMSO ([2]; 20 uM) | CMV-LACZ in Myotubes, signal relative to DMSO ([2]; 40 uM) | Burkin Assay in Myoblasts, signal relative to DMSO ([3]; 0.5 uM) | Burkin Assay in Myoblasts, signal relative to DMSO ([3]; 1 uM) | Burkin Assay in Myoblasts, signal relative to DMSO ([3]; 5 uM) | Burkin Assay in Myoblasts, signal relative to DMSO ([3]; 10 uM) | Burkin Assay in Myoblasts, signal relative to DMSO ([3]; 20 uM) | Burkin Assay in Myoblasts, signal relative to DMSO ([3]; 40 uM) | Burkin Assay in Myotubes, α7 integrin LacZ reporter signal relative to DMSO ([4]; 0.5 uM) | Burkin Assay in Myotubes, α7 integrin LacZ reporter signal relative to DMSO ([4]; 1 uM) | further results
CCOc1ccccc1Nc1cc2n(c(=O)n1)CCc1cc(OC)c(OC)cc1-2 [MLS001215294-01] | 1.2983 | 1.2817 | 0.8138 | 1.3412 | 0.3302 | 0.4116 | 0.8838 | 1.0800 | 1.1438 | 1.4324 | 1.2800 | 1.4470 | 0.9783 | 1.003 | 0.7641 | 0.6141 | 0.2025 | 0.2046 | 1.047 | 1.106 | Burkin Assay in Myotubes, α7 integrin LacZ reporter signal relative to DMSO ([4]; 5 uM): 0.8935; Burkin Assay in Myotubes, α7 integrin LacZ reporter signal relative to DMSO ([4]; 10 uM): 0.8216; Burkin Assay in Myotubes, α7 integrin LacZ reporter signal relative to DMSO ([4]; 20 uM): 0.8062; Burkin Assay in Myotubes, α7 integrin LacZ reporter signal relative to DMSO ([4]; 40 uM): 0.8079
c1ccc(-c2cn3c4c(sc3n2)CCCC4)cc1 [MLS002636056-01] | 0.9392 | 0.9021 | 1.0394 | 1.2571 | 1.1173 | 0.8270 | 0.9855 | 1.2636 | 1.0269 | 1.1613 | 1.4090 | 1.1160 | 1.157 | 1.066 | 1.037 | 1.224 | 0.9377 | 0.8203 | 0.9619 | 1.089 | Burkin Assay in Myotubes, α7 integrin LacZ reporter signal relative to DMSO ([4]; 5 uM): 0.9203; Burkin Assay in Myotubes, α7 integrin LacZ reporter signal relative to DMSO ([4]; 10 uM): 1.027; Burkin Assay in Myotubes, α7 integrin LacZ reporter signal relative to DMSO ([4]; 20 uM): 0.9045; Burkin Assay in Myotubes, α7 integrin LacZ reporter signal relative to DMSO ([4]; 40 uM): 1.167
CCC(=O)c1ccc(OCC(O)CN2CC(C)OC(C)C2)cc1.O=C(O)C(=O)O (stereo not drawn) [MLS000053342-01] | 1.0289 | 1.0397 | 1.0865 | 0.8785 | 0.9811 | 0.9930 | 0.9947 | 0.9863 | 0.9033 | 0.9187 | 1.3044 | 1.1344 | 1.222 | 1.088 | 0.9766 | 0.8668 | 1.0354 | 1.022 | 1.059 | 1.011 | Burkin Assay in Myotubes, α7 integrin LacZ reporter signal relative to DMSO ([4]; 5 uM): 1.002; Burkin Assay in Myotubes, α7 integrin LacZ reporter signal relative to DMSO ([4]; 10 uM): 1.03; Burkin Assay in Myotubes, α7 integrin LacZ reporter signal relative to DMSO ([4]; 20 uM): 1.049; Burkin Assay in Myotubes, α7 integrin LacZ reporter signal relative to DMSO ([4]; 40 uM): 1.11
